Source: patent US7479277B2, “Method for reducing intraocular pressure using integrin-linked kinase inhibitor” (Wisconsin Alumni Research Foundation, priority 2005, dated 2009)

Tested on: cultured human trabecular meshwork (HTM) cells
Experiment: HTM cell spreading on fibronectin III7-10 coated coverslips, immunofluorescence microscopy
Type: cell-based
Experimental: A cultured human trabecular meshwork (HTM) diploid cell strain obtained from trabecular meshwork explants was serum-starved for twenty-four hours and then plated on 12 mm round glass coverslips (Bellco Glass, Inc.; Vineland, N.J.) coated with III7-10 domains of fibronectin (RGD cell-binding domain; 236 nM) for three hours at 37° C., 95% humidity, 5% CO2, ambient air. The cells were exposed to either DMSO (control) or an ILK inhibitor with or without 472 nM of the Hep II domain. Following incubation, cells were fixed for immunofluorescence microscopy by methods known to a skilled artisan.
HTM cells were examined by immunofluorescence microscopy using anti-vinculin (1:3000; Sigma-Aldrich; St. Louis, Mo.), anti-ILK (1:1000; Upstate Group, LLC; Charlottesville, Va.), anti-talin (1:1000; Chemicon; Temecula, Calif.), anti-paxillin (1:1000; BD Biosciences; San Jose, Calif.) or anti-FAK (1:1000; BD Biosciences) antibodies to reveal actin stress fibers and focal adhesions. […] Cell images were acquired with a Zeiss AxioCam HRm camera mounted on a Zeiss Axiophan 2 Imaging fluorescence microscope together with AxioVision v.3.1 software. The percentage of spread cells was determined by counting polygonal cells containing stress fibers (spread cells) versus rounded cells lacking stress fibers (non-spread cells) from eight to twelve fields.

## O=c1cc(N2CCOCC2)oc2c(-c3ccccc3)cccc12 [LY29400]
LY29400 25 μM added to ILK inhibitor plus soluble Hep II domain 472 nM, p<0.008
  percentage of spread cells: 28%
Administered alone, compared to control cells, p<0.2
  percentage of spread cells: 35%
